ChEMBL document CHEMBL4507305, “Data for DCP probe TP-024” (2021)

Key:
[1] = biological target: Serine/threonine-protein kinase haspin (Homo sapiens) (UniProt Q8TF76); conditions: Compound concentration 1000.0 nM
[2] = biological target: SRSF protein kinase 2 (Homo sapiens) (UniProt P78362); conditions: Compound concentration 1000.0 nM
[3] = biological target: 5-hydroxytryptamine receptor 3A (Homo sapiens) (UniProt P46098); conditions: Compound concentration 10.0 uM
[4] = biological target: Casein kinase I isoform gamma-1 (Homo sapiens) (UniProt Q9HCP0); conditions: Compound concentration 1000.0 nM
Chain of Casein kinase I isoform gamma-1 (Homo sapiens) (Q9HCP0 whole entry, looked up, canonical isoform): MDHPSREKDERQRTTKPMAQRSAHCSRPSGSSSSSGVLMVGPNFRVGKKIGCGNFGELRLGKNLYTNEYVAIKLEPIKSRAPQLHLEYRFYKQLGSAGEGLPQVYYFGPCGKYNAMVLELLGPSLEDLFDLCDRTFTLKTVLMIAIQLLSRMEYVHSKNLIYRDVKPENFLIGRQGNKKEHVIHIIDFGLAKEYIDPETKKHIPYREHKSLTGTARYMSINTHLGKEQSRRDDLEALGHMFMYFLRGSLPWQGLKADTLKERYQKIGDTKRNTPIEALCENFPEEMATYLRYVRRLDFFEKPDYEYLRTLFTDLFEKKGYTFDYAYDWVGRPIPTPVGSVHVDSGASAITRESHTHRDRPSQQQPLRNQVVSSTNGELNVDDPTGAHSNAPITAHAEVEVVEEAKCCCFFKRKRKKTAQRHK

[5] = biological target: Mitogen-activated protein kinase kinase kinase 7 (Homo sapiens) (UniProt O43318); conditions: Compound concentration 1000.0 nM
[6] = biological target: Activin receptor type-1 (Homo sapiens) (UniProt Q04771); conditions: Compound concentration 1000.0 nM
[7] = biological target: Cyclin-dependent kinase 2 (Homo sapiens) (UniProt P24941); conditions: Compound concentration 1000.0 nM
[8] = biological target: Calcium/calmodulin-dependent protein kinase type II subunit gamma (Homo sapiens) (UniProt Q13555); conditions: Compound concentration 1000.0 nM
[9] = biological target: Serine/threonine-protein kinase TAO1 (Homo sapiens) (UniProt Q7L7X3); conditions: Compound concentration 1000.0 nM
[10] = biological target: Cyclin-dependent kinase 14 (Homo sapiens) (UniProt O94921); conditions: Compound concentration 1000.0 nM
[11] = biological target: Cyclin-dependent kinase 4 (Homo sapiens) (UniProt P11802); conditions: Compound concentration 1000.0 nM
[12] = biological target: Serine/threonine-protein kinase D3 (Homo sapiens) (UniProt O94806); conditions: Compound concentration 1000.0 nM
[13] = biological target: Tyrosine-protein kinase HCK (Homo sapiens) (UniProt P08631); conditions: Compound concentration 1000.0 nM
[14] = biological target: Angiopoietin-1 receptor (Homo sapiens) (UniProt Q02763); conditions: Compound concentration 1000.0 nM
[15] = biological target: Mitogen-activated protein kinase 4 (Homo sapiens) (UniProt P31152); conditions: Compound concentration 1000.0 nM
Chain of Mitogen-activated protein kinase 4 (Homo sapiens) (P31152 whole entry): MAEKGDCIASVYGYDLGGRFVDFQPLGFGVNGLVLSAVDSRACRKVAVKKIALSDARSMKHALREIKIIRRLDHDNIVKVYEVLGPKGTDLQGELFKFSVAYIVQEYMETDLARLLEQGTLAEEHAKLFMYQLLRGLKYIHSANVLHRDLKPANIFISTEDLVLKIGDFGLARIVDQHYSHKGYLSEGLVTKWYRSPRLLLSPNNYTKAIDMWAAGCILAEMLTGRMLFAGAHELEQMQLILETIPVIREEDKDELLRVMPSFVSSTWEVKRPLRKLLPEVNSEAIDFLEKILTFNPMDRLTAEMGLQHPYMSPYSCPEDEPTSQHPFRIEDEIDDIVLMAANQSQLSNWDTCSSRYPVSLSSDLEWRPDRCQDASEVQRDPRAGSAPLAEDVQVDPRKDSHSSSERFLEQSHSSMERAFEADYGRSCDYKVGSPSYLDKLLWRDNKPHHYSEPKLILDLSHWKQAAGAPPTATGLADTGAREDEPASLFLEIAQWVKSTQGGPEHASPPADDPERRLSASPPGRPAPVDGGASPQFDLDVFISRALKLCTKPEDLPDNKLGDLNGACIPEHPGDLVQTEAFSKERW

[16] = biological target: Cyclin-dependent kinase 11A (Homo sapiens) (UniProt Q9UQ88); conditions: Compound concentration 1000.0 nM
[17] = biological target: BDNF/NT-3 growth factors receptor (Homo sapiens) (UniProt Q16620); conditions: Compound concentration 1000.0 nM
[18] = biological target: Muscle, skeletal receptor tyrosine-protein kinase (Homo sapiens) (UniProt O15146); conditions: Compound concentration 1000.0 nM
[19] = biological target: Histamine H1 receptor (Homo sapiens) (UniProt P35367); conditions: Compound concentration 10.0 uM
[20] = biological target: SRSF protein kinase 1 (Homo sapiens) (UniProt Q96SB4); conditions: Compound concentration 1000.0 nM
[21] = biological target: Protein-tyrosine kinase 6 (Homo sapiens) (UniProt Q13882); conditions: Compound concentration 1000.0 nM
[22] = biological target: Protein kinase C theta type (Homo sapiens) (UniProt Q04759); conditions: Compound concentration 1000.0 nM
[23] = biological target: Myosin light chain kinase 2, skeletal/cardiac muscle (Homo sapiens) (UniProt Q9H1R3); conditions: Compound concentration 1000.0 nM
[24] = biological target: Myosin light chain kinase (Homo sapiens) (UniProt Q32MK0); conditions: Compound concentration 1000.0 nM
[25] = biological target: Serine/threonine-protein kinase TBK1 (Homo sapiens) (UniProt Q9UHD2); conditions: Compound concentration 1000.0 nM
[26] = biological target: Ephrin type-B receptor 3 (Homo sapiens) (UniProt P54753); conditions: Compound concentration 1000.0 nM
[27] = biological target: Sodium-dependent noradrenaline transporter (Homo sapiens) (UniProt P23975); conditions: Compound concentration 10.0 uM
Chain of Sodium-dependent noradrenaline transporter (Homo sapiens) (P23975 whole entry): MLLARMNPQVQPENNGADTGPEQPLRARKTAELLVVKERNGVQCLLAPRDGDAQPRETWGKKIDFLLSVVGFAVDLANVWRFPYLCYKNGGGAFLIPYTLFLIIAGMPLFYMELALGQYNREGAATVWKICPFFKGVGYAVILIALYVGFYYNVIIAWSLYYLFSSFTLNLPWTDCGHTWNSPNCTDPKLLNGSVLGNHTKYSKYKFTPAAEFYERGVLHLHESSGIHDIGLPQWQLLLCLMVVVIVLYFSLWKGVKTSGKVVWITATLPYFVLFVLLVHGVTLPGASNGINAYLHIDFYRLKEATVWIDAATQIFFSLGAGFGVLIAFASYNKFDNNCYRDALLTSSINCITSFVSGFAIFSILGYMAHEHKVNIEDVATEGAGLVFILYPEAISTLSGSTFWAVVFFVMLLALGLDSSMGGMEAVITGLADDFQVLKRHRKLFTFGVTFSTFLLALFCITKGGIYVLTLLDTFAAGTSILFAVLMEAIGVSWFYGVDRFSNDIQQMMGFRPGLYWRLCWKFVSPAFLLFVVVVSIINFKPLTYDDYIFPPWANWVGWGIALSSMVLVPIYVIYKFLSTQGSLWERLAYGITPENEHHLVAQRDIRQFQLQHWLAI

[28] = biological target: Serine/threonine-protein kinase OSR1 (Homo sapiens) (UniProt O95747); conditions: Compound concentration 1000.0 nM
Chain of Serine/threonine-protein kinase OSR1 (Homo sapiens) (O95747 2-527 limits assumed): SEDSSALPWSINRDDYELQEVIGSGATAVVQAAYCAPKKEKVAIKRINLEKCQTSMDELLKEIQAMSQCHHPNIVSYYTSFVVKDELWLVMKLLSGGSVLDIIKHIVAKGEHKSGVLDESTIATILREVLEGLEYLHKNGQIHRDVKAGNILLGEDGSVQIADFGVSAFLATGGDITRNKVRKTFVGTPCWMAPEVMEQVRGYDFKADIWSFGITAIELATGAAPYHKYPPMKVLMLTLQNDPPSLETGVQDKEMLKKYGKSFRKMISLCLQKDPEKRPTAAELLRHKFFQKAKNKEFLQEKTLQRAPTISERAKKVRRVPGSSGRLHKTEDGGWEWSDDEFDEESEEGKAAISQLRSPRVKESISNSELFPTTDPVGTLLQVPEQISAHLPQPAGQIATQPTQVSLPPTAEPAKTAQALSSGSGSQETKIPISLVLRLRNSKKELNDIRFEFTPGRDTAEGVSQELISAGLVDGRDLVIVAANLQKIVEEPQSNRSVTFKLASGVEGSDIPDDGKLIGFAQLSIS

[29] = biological target: Phosphorylase b kinase gamma catalytic chain, skeletal muscle/heart isoform (Homo sapiens) (UniProt Q16816); conditions: Compound concentration 1000.0 nM
[30] = biological target: Alpha-2B adrenergic receptor (Homo sapiens) (UniProt P18089); conditions: Compound concentration 10.0 uM
[31] = biological target: 5-hydroxytryptamine receptor 7 (Homo sapiens) (UniProt P34969); conditions: Compound concentration 10.0 uM
Chain of 5-hydroxytryptamine receptor 7 (Homo sapiens) (P34969 whole entry): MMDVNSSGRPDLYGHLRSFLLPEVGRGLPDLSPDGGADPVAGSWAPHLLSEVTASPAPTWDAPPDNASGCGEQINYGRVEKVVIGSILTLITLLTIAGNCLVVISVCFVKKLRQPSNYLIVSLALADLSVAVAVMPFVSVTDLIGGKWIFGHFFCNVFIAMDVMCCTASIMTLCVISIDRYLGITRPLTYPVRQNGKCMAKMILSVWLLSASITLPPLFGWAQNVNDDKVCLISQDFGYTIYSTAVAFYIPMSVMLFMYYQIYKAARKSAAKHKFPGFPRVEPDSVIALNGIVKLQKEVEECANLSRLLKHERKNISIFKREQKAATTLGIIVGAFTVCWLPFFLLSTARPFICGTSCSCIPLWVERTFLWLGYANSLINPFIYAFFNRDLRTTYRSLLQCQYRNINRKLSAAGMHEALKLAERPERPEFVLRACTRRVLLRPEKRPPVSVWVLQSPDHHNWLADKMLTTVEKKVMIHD

[32] = biological target: Serine/threonine-protein kinase NLK (Homo sapiens) (UniProt Q9UBE8); conditions: Compound concentration 1000.0 nM
[33] = biological target: Serine/threonine-protein kinase RIO1 (Homo sapiens) (UniProt Q9BRS2); conditions: Compound concentration 1000.0 nM
[34] = biological target: Dual specificity protein kinase CLK1 (Homo sapiens) (UniProt P49759); conditions: Compound concentration 1000.0 nM
[35] = biological target: RAC-gamma serine/threonine-protein kinase (Homo sapiens) (UniProt Q9Y243); conditions: Compound concentration 1000.0 nM
[36] = test system: Receptor-type tyrosine-protein kinase FLT3 (Homo sapiens), P36888 [UNDEFINED MUTATION]; conditions: Compound concentration 1000.0 nM
[37] = biological target: Serine/threonine-protein kinase SIK2 (Homo sapiens) (UniProt Q9H0K1); conditions: Compound concentration 1000.0 nM
Chain of Serine/threonine-protein kinase SIK2 (Homo sapiens) (Q9H0K1 whole entry, looked up): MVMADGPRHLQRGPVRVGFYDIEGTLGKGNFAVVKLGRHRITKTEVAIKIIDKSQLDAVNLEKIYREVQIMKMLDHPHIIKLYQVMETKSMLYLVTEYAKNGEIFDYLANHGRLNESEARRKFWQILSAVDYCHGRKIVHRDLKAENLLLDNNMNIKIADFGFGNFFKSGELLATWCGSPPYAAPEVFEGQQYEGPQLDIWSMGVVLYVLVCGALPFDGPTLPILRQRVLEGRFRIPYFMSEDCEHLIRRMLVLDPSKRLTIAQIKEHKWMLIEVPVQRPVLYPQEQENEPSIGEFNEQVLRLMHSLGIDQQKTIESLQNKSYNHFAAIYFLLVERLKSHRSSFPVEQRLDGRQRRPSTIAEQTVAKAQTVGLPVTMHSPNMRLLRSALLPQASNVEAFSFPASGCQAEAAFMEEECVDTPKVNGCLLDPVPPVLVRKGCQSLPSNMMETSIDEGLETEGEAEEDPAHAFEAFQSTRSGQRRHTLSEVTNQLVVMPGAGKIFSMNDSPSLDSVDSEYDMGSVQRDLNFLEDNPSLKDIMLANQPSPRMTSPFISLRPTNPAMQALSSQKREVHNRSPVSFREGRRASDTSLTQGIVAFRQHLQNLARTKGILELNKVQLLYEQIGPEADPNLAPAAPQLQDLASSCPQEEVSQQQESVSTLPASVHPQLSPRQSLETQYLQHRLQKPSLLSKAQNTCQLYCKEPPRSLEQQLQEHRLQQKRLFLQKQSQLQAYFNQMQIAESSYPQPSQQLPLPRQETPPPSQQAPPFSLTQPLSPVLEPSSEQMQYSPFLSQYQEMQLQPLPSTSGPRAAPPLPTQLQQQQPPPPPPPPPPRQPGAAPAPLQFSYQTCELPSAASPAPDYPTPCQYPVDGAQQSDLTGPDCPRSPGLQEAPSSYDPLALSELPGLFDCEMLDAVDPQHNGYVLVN

[38] = biological target: Serine/threonine-protein kinase 32C (Homo sapiens) (UniProt Q86UX6); conditions: Compound concentration 1000.0 nM
Chain of Serine/threonine-protein kinase 32C (Homo sapiens) (Q86UX6 whole entry): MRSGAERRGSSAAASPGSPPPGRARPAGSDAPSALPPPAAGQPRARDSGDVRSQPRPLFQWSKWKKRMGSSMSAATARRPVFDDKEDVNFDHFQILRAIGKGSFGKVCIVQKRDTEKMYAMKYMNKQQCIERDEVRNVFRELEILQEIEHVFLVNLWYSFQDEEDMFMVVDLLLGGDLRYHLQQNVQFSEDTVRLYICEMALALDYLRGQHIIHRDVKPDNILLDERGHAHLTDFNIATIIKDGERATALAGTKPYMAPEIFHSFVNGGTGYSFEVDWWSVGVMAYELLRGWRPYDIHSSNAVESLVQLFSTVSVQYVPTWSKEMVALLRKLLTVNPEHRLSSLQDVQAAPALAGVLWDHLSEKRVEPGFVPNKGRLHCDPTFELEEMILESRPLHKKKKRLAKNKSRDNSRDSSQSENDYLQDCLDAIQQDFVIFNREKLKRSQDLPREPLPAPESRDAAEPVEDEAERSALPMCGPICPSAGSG

[39] = biological target: Serine/threonine-protein kinase WNK4 (Homo sapiens) (UniProt Q96J92); conditions: Compound concentration 1000.0 nM
[40] = biological target: Mitogen-activated protein kinase kinase kinase 10 (Homo sapiens) (UniProt Q02779); conditions: Compound concentration 1000.0 nM
[41] = biological target: Mitogen-activated protein kinase kinase kinase 5 (Homo sapiens) (UniProt Q99683); conditions: Compound concentration 1000.0 nM
[42] = test system: Phosphatidylinositol 4,5-bisphosphate 3-kinase catalytic subunit alpha isoform (Homo sapiens), P42336 [C420R]; conditions: Compound concentration 1000.0 nM
[43] = biological target: Mitogen-activated protein kinase kinase kinase 20 (Homo sapiens) (UniProt Q9NYL2); conditions: Compound concentration 1000.0 nM
[44] = biological target: Death-associated protein kinase 1 (Homo sapiens) (UniProt P53355); conditions: Compound concentration 1000.0 nM
[45] = biological target: Ephrin type-B receptor 1 (Homo sapiens) (UniProt P54762); conditions: Compound concentration 1000.0 nM
[46] = biological target: Tyrosine-protein kinase ABL1 (Homo sapiens) (UniProt P00519); conditions: Compound concentration 1000.0 nM

Chain of Serine/threonine-protein kinase haspin (Homo sapiens) (Q8TF76 whole entry): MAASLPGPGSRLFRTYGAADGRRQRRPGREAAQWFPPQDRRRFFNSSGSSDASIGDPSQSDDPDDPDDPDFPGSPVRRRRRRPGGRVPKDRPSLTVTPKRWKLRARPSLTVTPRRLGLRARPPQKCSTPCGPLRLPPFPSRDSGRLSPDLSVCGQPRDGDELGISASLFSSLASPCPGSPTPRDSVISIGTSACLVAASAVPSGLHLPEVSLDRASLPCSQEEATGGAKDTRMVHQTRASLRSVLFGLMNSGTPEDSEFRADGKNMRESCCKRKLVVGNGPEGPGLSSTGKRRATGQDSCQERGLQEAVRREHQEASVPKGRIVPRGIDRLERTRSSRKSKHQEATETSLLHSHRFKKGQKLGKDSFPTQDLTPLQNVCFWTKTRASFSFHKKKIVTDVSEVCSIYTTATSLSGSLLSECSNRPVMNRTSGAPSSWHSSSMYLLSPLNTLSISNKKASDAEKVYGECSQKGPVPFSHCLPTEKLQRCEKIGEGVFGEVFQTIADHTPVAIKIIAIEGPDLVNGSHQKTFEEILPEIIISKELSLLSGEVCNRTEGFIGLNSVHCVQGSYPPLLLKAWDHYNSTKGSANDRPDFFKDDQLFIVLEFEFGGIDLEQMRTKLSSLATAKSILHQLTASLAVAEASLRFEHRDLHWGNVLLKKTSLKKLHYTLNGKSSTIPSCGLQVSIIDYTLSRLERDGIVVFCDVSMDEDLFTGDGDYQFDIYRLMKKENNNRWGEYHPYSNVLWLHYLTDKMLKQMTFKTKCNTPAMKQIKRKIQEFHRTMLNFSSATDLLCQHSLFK

Cc1nc(Cc2cccc(C(F)(F)F)c2)sc1-c1ccc(C(N)=O)nc1 [TP-024n]
inactive: residual activity [1] 100% | residual activity [2] 100% | inhibition [3] 4.72% | residual activity [4] 97% | residual activity [5] 93% | residual activity [6] 100% | residual activity [7] 100% | residual activity [8] 93% | residual activity [9] 81% | residual activity [10] 100% | residual activity [11] 90% | residual activity [12] 97% | residual activity [13] 100% | residual activity [14] 80% | residual activity [15] 100% | residual activity [16] 92% | residual activity [17] 84% | residual activity [18] 89% | inhibition [19] 9.3% | residual activity [20] 75% | residual activity [21] 100% | residual activity [22] 94% | residual activity [23] 77% | residual activity [24] 81% | residual activity [25] 91% | residual activity [26] 100% | inhibition [27] -8.77% | residual activity [28] 100% | residual activity [29] 84% | inhibition [30] 5.89% | inhibition [31] 16.4% | residual activity [32] 100% | residual activity [33] 94% | residual activity [34] 83% | residual activity [35] 92% | residual activity [36] 100% | residual activity [37] 90% | residual activity [38] 87% | residual activity [39] 100% | residual activity [40] 71% | residual activity [41] 100% | residual activity [42] 89% | residual activity [43] 73% | residual activity [44] 100% | residual activity [45] 100% | residual activity [46] 98%

Cc1cc(-n2nc(Cc3cc(F)cc(C(F)(F)F)c3)nc2C)ccc1C(N)=O [TP-024]
inactive: residual activity [1] 100% | residual activity [2] 100% | inhibition [3] 5.45% | residual activity [4] 100% | residual activity [5] 100% | residual activity [6] 100% | residual activity [7] 100% | residual activity [8] 100% | residual activity [9] 91% | residual activity [10] 100% | residual activity [11] 100% | residual activity [12] 81% | residual activity [13] 100% | residual activity [14] 92% | residual activity [15] 100% | residual activity [16] 100% | residual activity [17] 98% | residual activity [18] 100% | inhibition [19] 8.06% | residual activity [20] 81% | residual activity [21] 100% | residual activity [22] 100% | residual activity [23] 91% | residual activity [24] 92% | residual activity [25] 89% | residual activity [26] 100% | inhibition [27] -6.7% | residual activity [28] 91% | residual activity [29] 98% | inhibition [30] 10.1% | inhibition [31] 21.4% | residual activity [32] 100% | residual activity [33] 85% | residual activity [34] 86% | residual activity [35] 100% | residual activity [36] 100% | residual activity [37] 100% | residual activity [38] 100% | residual activity [39] 100% | residual activity [40] 95% | residual activity [41] 100% | residual activity [42] 93% | residual activity [43] 99% | residual activity [44] 99% | residual activity [45] 97% | residual activity [46] 100%
